This test has as its target Casein kinase II subunit alpha/beta (Homo sapiens, UniProt P68400). Put plainly: In Vitro Kinase Assay. The following applies: pH 7.5; 30 °C. As for the experimental part:
Each test was performed twice in a total reaction volume of 30 μL, containing 6 μg of peptide substrate RRRDDDSDDD (New England Biolabs (UK) Ltd., Herts, UK); 10 units of recombinant human CK2 holoenzyme (New England Biolabs); 50 μM ATP and γ-labeled 32P ATP, diluted to specific activity 100 μCi/mM; CK2 buffer (20mM Tris-HCl, pH 7.5; 50mM KCl; 10mM MgCl2) and inhibitor in varying concentrations. Incubation time was 20 min at 30 °C. The reaction was stopped by adding an equal volume of 10% o-phosphoric acid and the reaction mixture was loaded onto 20-mm discs of phosphocellulose paper (Whatman plc, Kent, UK). Discs were washed three times with 1% o-phosphoric acid solution, air-dried at room temperature, and counted by the Cherenkov method in a beta-counter (LKB). As negative control an equal volume of DMSO was added to the reaction mixture. Quercetin, a known CK2 inhibitor, was used as an inhibition positive control. The final concentration of quercetin was 0.55 μM (which inhibited CK2 activity by 50%).
Compound `O=C(O)c1cccc(NC(=O)c2ccc(N3C(=O)CCS3(=O)=O)cc2Cl)c1` [3-{[2-chloro-4-(1,1-dioxido-3-oxoisothiazolidin-2-yl)benzoyl]amino}benzoic acid (31)] had a half-maximal inhibitory concentration (IC50) of 1.5 µM.
The value for `CC1CS(=O)(=O)N(c2ccc(C(=O)Nc3ccc(C(=O)O)c(O)c3)c(Cl)c2)C1=O` (configuration not stated) [4-{[2-chloro-4-(4-methyl-1,1-dioxido-3-oxoisothiazolidin-2-yl)benzoyl]amino}-2-hydroxybenzoic acid (38)] was 3.5 µM; that for `CC1CS(=O)(=O)N(c2ccc(C(=O)Nc3cccc(C(=O)O)c3)cc2)C1=O` (configuration not stated) [3-{[4-(4-methyl-1,1-dioxido-3-oxoisothiazolidin-2-yl)benzoyl]amino}benzoic acid (24)] was 3.1 µM; that for `CC1(C)CS(=O)(=O)N(c2ccc(C(=O)Nc3ccc(C(=O)O)c(O)c3)cc2)C1=O` [4-{[4-(4,4-dimethyl-1,1-dioxido-3-oxoisothiazolidin-2-yl)benzoyl]amino}-2-hydroxybenzoic acid (30)] was greater than 30 µM.
In turn, `CC1CS(=O)(=O)N(c2ccc(C(=O)Nc3ccc(O)c(C(=O)O)c3)c(Cl)c2)C1=O` (configuration not stated) [5-{[2-chloro-4-(4-methyl-1,1-dioxido-3-oxoisothiazolidin-2-yl)benzoyl]amino}-2-hydroxybenzoic acid (36)] yielded an IC50 of 6 µM.
Take `O=C(O)c1ccc(NC(=O)c2ccc(N3C(=O)CCS3(=O)=O)cc2Cl)cc1` [4-{[2-chloro-4-(1,1-dioxido-3-oxoisothiazolidin-2-yl)benzoyl]amino}benzoic acid (34)]: the half-inhibitory concentration (IC50) is greater than 30 µM.
In the case of `O=C(O)c1ccc(NC(=O)c2ccc(N3C(=O)CCS3(=O)=O)cc2Cl)cc1O` [4-{[2-chloro-4-(1,1-dioxido-3-oxoisothiazolidin-2-yl)benzoyl]amino}-2-hydroxybenzoic acid (33)], the IC50 was found to be 3 µM.
The value for `CC1(C)CS(=O)(=O)N(c2ccc(C(=O)Nc3ccc(O)c(C(=O)O)c3)cc2)C1=O` [5-{[4-(4,4-dimethyl-1,1-dioxido-3-oxoisothiazolidin-2-yl)benzoyl]amino}-2-hydroxybenzoic acid (29)] was greater than 30 µM; that for `CC1CS(=O)(=O)N(c2ccc(C(=O)Nc3ccc(O)c(C(=O)O)c3)cc2)C1=O` (configuration not stated) [2-hydroxy-5-{[4-(4-methyl-1,1-dioxido-3-oxoisothiazolidin-2-yl)benzoyl]amino}benzoic acid (25)] was greater than 30 µM.
The value for `CC1CS(=O)(=O)N(c2ccc(C(=O)NCC(=O)O)cc2)C1=O` (configuration not stated) [N-[4-(4-methyl-1,1-dioxido-3-oxoisothiazolidin-2-yl)benzoyl]glycine (40)] was greater than 30 µM; that for `CC1(C)CS(=O)(=O)N(c2ccc(C(=O)Nc3cccc(C(=O)O)c3)cc2)C1=O` [3-{[4-(4,4-dimethyl-1,1-dioxido-3-oxoisothiazolidin-2-yl)benzoyl]amino}benzoic acid (28)] was 8 µM; that for `CC1CS(=O)(=O)N(c2ccc(C(=O)Nc3ccc(C(=O)O)c(O)c3)cc2)C1=O` (configuration not stated) [2-hydroxy-4-{[4-(4-methyl-1,1-dioxido-3-oxoisothiazolidin-2-yl)benzoyl]amino}benzoic acid (27)] was 19.5 µM.
To `CC1CS(=O)(=O)N(c2ccc(C(=O)Nc3cc(C(=O)O)ccc3O)cc2)C1=O` (configuration not stated) [4-hydroxy-3-{[4-(4-methyl-1,1-dioxido-3-oxoisothiazolidin-2-yl)benzoyl]amino}benzoic acid (26)] belongs 16 µM; to `CC1CS(=O)(=O)N(c2ccc(C(=O)Nc3cccc(C(=O)O)c3)c(Cl)c2)C1=O` (configuration not stated) [3-{[2-chloro-4-(4-methyl-1,1-dioxido-3-oxoisothiazolidin-2-yl)benzoyl]amino}benzoic acid (35)], 3.6 µM; to `O=C(Nc1ccc(O)c(C(=O)O)c1)c1ccc(N2C(=O)CCS2(=O)=O)cc1` [5-{[4-(1,1-dioxido-3-oxoisothiazolidin-2-yl)benzoyl]amino}-2-hydroxybenzoic acid (22)], 8 µM.
Consider `O=C(O)c1cccc(NC(=O)c2ccc(N3C(=O)CCS3(=O)=O)cc2)c1` [3-{[4-(1,1-dioxido-3-oxoisothiazolidin-2-yl)benzoyl]amino}benzoic acid (21)], for which 1.8 µM corresponded to half-maximal inhibition (IC50).
The compound `CC1CS(=O)(=O)N(c2ccc(C(=O)NCCCC(=O)O)cc2)C1=O` (configuration not stated) [4-{[4-(4-methyl-1,1-dioxido-3-oxoisothiazolidin-2-yl)benzoyl]amino}butanoic acid (42)] yielded an IC50 greater than 30 µM.
To `COC(=O)c1cc(NC(=O)c2ccc(N3C(=O)C(C)CS3(=O)=O)cc2Cl)ccc1O` (configuration not stated) [Methyl 5-{[2-chloro-4-(4-methyl-1,1-dioxido-3-oxoisothiazolidin-2-yl)benzoyl]amino}-2-hydroxybenzoate (39)] belongs greater than 30 µM.
To `CC1CS(=O)(=O)N(c2ccc(C(=O)Nc3cc(C(=O)O)ccc3O)c(Cl)c2)C1=O` (configuration not stated) [3-{[2-chloro-4-(4-methyl-1,1-dioxido-3-oxoisothiazolidin-2-yl)benzoyl]amino}-4-hydroxybenzoic acid (37)] belongs 3.7 µM; to `O=C(Nc1ccc(C(=O)O)c(O)c1)c1ccc(N2C(=O)CCS2(=O)=O)cc1` [4-{[4-(1,1-dioxido-3-oxoisothiazolidin-2-yl)benzoyl]amino}-2-hydroxybenzoic acid (23)], 14 µM.
Compound `CC1CS(=O)(=O)N(c2ccc(C(=O)NCCC(=O)O)cc2)C1=O` (configuration not stated) [N-[4-(4-methyl-1,1-dioxido-3-oxoisothiazolidin-2-yl)benzoyl]-b-alanine (41)] had a concentration for half-maximal inhibition (IC50) greater than 30 µM.
To `O=C(O)c1cc(NC(=O)c2ccc(N3C(=O)CCS3(=O)=O)cc2Cl)ccc1O` [5-{[2-chloro-4-(1,1-dioxido-3-oxoisothiazolidin-2-yl)benzoyl]amino}-2-hydroxybenzoic acid (32)] belongs 9 µM.

The values are drawn from BindingDB's records for doi:10.3109/14756366.2013.782024 (NAS of Ukraine, 2014).
